Measured values from ChEMBL document CHEMBL1201862, “PubChem BioAssay data set” (2004).
Active and inactive are the calls of the source.

Key:
[1] = molecular target: Voltage-gated inwardly rectifying potassium channel KCNH2 (Homo sapiens, UniProt Q12809); settings: Potency;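 note: confirmatory quantitative high-throughput screen measuring inhibition of hERG channel activity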
Streptococcus = assay: GAS UMAA2166 growth inhibition – luminescence, BacTiterGlo, counter-screen for streptokinase expression inhibitor project, dose response (AID 1915); format: functional, organism-based;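 note: potency for reduction of bacterial viability or growth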
[2] = reduction of Shn3 3'UTR-driven luciferase in osteoblasts – cell-based, Clone20 osteoblasts, firefly luciferase, cherry-picked, dose response (AID 624132); format: functional;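 note: firefly luciferase luminescence from reporter carrying the Shn3 3'UTR in osteoblasts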
[3] = test system: Streptococcus sp. 'group A'; assay: Streptococcus pyogenes SK(-)GAS viability under kanamycin – luminescence, BacTiterGlo, confirmation, counter-screen for streptokinase expression inhibitor project, dose response (AID 1900); format: functional, organism-based
[4] = Trypanosoma cruzi growth suppression in host cells – NIH3T3 host cells, beta-gal luminescence, confirmation (AID 2044); format: functional, cell-based;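 note: intracellular parasites grown in NIH/3T3 mouse fibroblasts as host cells; luminescent beta-galactosidase reporter signal from transgenic T. cruzi replicating inside host cells; inhibitors lower the luminescence signal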
Hexokinase HKDC1 = molecular target: T1, Hexokinase HKDC1 (Homo sapiens, UniProt Q2TB90); assay: activation of HKDC1 glucose phosphorylation – biochemical, W721R variant, dose response (AID 504730); format: functional
T1 sequence (Q2TB90 whole entry): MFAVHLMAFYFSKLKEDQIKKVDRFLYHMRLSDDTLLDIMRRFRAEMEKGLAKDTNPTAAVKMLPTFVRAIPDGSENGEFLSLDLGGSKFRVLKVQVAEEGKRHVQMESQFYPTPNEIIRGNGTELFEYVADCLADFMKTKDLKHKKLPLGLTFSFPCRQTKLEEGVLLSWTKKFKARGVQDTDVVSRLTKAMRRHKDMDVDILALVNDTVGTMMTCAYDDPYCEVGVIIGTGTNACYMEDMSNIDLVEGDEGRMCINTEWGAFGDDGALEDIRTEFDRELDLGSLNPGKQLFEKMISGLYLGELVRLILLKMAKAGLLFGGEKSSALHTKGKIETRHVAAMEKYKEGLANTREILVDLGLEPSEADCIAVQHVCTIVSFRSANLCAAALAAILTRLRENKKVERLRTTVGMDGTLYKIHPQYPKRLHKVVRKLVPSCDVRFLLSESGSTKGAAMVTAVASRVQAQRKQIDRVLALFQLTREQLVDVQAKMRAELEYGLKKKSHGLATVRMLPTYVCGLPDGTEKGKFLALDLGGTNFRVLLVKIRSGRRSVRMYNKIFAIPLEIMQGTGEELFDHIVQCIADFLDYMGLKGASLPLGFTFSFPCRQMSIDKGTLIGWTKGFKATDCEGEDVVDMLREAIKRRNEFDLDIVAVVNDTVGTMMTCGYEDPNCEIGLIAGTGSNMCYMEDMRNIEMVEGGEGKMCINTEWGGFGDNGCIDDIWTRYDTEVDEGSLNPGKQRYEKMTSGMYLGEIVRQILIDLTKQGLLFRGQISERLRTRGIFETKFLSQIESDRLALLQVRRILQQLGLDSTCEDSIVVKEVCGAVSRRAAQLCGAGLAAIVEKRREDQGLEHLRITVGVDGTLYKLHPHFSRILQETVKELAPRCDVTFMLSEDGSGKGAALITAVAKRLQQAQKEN

[5] = molecular target: Heat shock protein HSP 90-alpha (Homo sapiens, UniProt P07900); format: functional, organism-based
[6] = NIH3T3 cell viability loss – ATP luminescence, mouse fibroblasts, counter-screen, dose response (AID 2010); format: functional, cell-based;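 note: cells exposed to compound for about 90 hours before reading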
Hexokinase-1 = molecular target: T2, Hexokinase-1 (Homo sapiens, UniProt P19367); assay: HK1 enzyme activation by HKDC1 hits – biochemical, selectivity assay for HKDC1 activator project, dose response (AID 504762); format: functional
T2 sequence (P19367 whole entry): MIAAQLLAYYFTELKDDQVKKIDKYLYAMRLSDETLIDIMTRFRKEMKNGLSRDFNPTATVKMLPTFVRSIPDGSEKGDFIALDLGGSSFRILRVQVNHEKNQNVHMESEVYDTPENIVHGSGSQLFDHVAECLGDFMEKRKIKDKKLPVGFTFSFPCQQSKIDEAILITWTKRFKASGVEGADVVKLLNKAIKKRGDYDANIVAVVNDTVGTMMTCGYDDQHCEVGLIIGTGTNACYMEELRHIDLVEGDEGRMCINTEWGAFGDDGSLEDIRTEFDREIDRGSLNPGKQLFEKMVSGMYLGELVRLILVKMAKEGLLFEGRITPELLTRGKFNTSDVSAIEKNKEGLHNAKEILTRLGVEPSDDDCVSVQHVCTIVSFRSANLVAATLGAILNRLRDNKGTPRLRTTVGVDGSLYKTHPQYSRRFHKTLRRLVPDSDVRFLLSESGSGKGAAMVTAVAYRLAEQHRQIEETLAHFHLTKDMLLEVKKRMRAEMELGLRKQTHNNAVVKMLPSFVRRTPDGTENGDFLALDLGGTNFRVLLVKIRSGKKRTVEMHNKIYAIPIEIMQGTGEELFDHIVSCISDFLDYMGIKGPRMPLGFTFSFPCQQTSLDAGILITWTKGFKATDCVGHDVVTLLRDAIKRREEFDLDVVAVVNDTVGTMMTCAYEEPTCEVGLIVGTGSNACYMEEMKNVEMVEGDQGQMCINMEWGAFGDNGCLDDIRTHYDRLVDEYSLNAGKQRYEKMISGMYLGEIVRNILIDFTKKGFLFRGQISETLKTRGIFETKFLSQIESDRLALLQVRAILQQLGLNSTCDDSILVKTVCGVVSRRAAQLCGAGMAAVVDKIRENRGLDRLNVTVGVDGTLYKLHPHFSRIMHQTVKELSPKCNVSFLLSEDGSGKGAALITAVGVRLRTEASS

[7] = loss of viability in HepG2 cells – cell-based, CellTiter-Glo, cherry-picked, cytotoxicity control for Shn3 inhibitor project, dose response (AID 624134); format: functional
[8] = non-specific 3'UTR reporter inhibition in Clone20-Shn3RL – cell-based, Renilla luciferase, cherry-picked, counter-screen for Shn3 inhibitor project, dose response (AID 624133); format: functional
[9] = molecular target: T3, Ubiquitin-conjugating enzyme E2 N (Homo sapiens, UniProt P61088); format: functional
T3 sequence (P61088 whole entry): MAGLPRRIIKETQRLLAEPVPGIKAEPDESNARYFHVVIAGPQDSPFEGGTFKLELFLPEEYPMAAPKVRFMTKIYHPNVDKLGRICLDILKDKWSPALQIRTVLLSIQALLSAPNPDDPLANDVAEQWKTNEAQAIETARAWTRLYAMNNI

[10] = molecular target: T3, Ubiquitin-conjugating enzyme E2 N; format: functional; remark: listed apart in the source
Bcl-2-related protein A1 = molecular target: T4, Bcl-2-related protein A1 (Mus musculus, UniProt Q07440); format: functional;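 note: confirmatory dose–response counterscreen on Bfl-1, used to check hits from a UBC13 polyubiquitin inhibitor campaign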
T4 sequence (Q07440 whole entry): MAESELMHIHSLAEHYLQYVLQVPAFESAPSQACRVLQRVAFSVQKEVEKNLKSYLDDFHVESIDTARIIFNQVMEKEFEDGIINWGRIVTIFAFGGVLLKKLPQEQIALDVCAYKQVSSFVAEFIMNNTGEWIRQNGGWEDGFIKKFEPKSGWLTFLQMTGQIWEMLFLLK

[11] = MIN6 cell viability loss – mouse insulinoma, cytotoxicity control, dose response (AID 2122); format: functional;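 note: confirmatory high-throughput counterscreen run to flag cytotoxic compounds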
INS1 = assay: INS-1E survival protection against cytokine death – cell-based, luminescence, retest, dose response (AID 449756); format: functional; settings: Rattus norvegicus;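 note: cell death triggered by IL-1 beta plus TNF-alpha plus IFN-gamma mixture; protective hits raise ATP signal compared with cytokine alone wells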
[12] = decrease of insulin promoter-GFP reporter – imaging, high-content screening, mouse beta cells (AID 1628); format: functional; settings: MIN6
cells [13] = format: functional, cell-based
A-375 [14] = assay: proliferation inhibition in MITF-low A375 cells – cell-based, cherry-pick samples, set 2, counter-screen for MITF modulator project, dose response (AID 540335); format: functional; settings: Homo sapiens
A-375 [15] = assay: MITF: Counter assay: A375 proliferation Measured in Cell-Based System Using Plate Reader - 2084-03_Inhibitor_Dose_DryPowder_Activity. [Related pubchem assays (depositor defined):AID488944]; format: functional; settings: Homo sapiens
[16] = luciferase reporter signal suppression in cells – H4 neuroglioma cells, luminescence, dose response (AID 1990); format: functional, cell-based
[17] = molecular target: T5, Latent membrane protein 1 (Human herpesvirus 4 (strain B95-8), UniProt P03230); assay: LMP1 TES1 pathway selectivity over dsRED control – imaging, HEK293T, dual-color eGFP/dsRED, cherry-picks, selectivity assay for LMP1 NF-kB inhibitor project, dose response (AID 588398); format: functional, cell-based
T5 sequence (P03230 whole entry): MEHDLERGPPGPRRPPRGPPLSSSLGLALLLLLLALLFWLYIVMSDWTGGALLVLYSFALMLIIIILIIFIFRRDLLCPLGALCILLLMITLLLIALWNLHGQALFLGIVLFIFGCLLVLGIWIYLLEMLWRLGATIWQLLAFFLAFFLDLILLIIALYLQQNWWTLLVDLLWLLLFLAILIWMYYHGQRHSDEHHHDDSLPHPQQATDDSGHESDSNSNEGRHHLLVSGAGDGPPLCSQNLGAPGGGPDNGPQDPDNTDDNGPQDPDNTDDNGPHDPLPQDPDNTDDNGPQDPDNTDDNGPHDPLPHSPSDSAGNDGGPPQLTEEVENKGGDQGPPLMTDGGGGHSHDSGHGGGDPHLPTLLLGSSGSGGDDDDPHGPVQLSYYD

[18] = alpha-synuclein stem-loop luciferase translation blockers – H4 neuroglioma cells, luminescence, confirmation (AID 1988); format: functional, cell-based
[19] = Luminescence Cell-Based Dose Response HTS to Identify Inhibitors of 5'UTR Stem-Loop Driven Prion Protein mRNA Translation in H4 Neuroglioblastoma Cells. [Related pubchem assays: 1827 (Project Summary), 1813 (Primary HTS)]; format: functional
cells [20] = format: functional, cell-based; remark: listed apart in the source
HEK293 = assay: EBV LMP1 TES2 canonical NF-kB signalling blockers – cell-based, HEK293, luciferase, cherry-pick, dose response (AID 588343); format: functional; settings: Homo sapiens
Cytochrome P450 2D6 = Cytochrome P450 2D6 (Homo sapiens, UniProt P10635);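 note: CYP2D6 member of a cytochrome P450 panel assay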
HT-1080 = assay: HT1080 cell viability loss – fluorescence readout (AID 620); format: functional, cell-based; settings: Homo sapiens
[21] = molecular target: Luciferin 4-monooxygenase (Photinus pyralis, UniProt P08659); assay: Counter Screen for Luciferase-based Assay Positives. [Related pubchem assays: 620, 618, 411 ]
CAAX prenyl protease 2 [22] = molecular target: CAAX prenyl protease 2 (Homo sapiens, UniProt Q9Y256); assay: inhibition of Ras-converting CAAX protease Rce1 – biochemical, yeast membranes, quenched-peptide fluorescence, cherry-pick, dose response (AID 588849)
CAAX prenyl protease 2 [23] = molecular target: T6, CAAX prenyl protease 2 (Saccharomyces cerevisiae S288c, UniProt Q03530); format: biochemical
T6 sequence (Q03530 whole entry): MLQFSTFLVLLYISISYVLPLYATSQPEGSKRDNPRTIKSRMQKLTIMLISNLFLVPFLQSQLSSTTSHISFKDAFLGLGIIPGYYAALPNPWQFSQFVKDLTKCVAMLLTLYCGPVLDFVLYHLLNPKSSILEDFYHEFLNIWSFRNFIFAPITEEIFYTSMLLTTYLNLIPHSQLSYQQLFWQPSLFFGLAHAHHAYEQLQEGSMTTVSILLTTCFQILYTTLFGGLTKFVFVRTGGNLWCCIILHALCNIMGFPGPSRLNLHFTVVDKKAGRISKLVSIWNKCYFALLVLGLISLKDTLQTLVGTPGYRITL

Trypsin = Trypsin (Sus scrofa, UniProt P00761); assay: trypsin protease activity blockade – biochemical, quenched peptide fluorescence, cherry-pick, selectivity assay for Rce1 protease inhibitor project, dose response (AID 488789)
Sequence of Trypsin (P00761 whole entry): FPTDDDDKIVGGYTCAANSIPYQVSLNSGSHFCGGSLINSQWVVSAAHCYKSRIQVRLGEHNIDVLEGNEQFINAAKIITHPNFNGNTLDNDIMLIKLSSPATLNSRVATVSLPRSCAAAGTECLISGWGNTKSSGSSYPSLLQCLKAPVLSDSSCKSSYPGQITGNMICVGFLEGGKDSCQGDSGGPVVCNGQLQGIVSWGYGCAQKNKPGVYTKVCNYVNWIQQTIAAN

Sequence of Voltage-gated inwardly rectifying potassium channel KCNH2 (Q12809 whole entry): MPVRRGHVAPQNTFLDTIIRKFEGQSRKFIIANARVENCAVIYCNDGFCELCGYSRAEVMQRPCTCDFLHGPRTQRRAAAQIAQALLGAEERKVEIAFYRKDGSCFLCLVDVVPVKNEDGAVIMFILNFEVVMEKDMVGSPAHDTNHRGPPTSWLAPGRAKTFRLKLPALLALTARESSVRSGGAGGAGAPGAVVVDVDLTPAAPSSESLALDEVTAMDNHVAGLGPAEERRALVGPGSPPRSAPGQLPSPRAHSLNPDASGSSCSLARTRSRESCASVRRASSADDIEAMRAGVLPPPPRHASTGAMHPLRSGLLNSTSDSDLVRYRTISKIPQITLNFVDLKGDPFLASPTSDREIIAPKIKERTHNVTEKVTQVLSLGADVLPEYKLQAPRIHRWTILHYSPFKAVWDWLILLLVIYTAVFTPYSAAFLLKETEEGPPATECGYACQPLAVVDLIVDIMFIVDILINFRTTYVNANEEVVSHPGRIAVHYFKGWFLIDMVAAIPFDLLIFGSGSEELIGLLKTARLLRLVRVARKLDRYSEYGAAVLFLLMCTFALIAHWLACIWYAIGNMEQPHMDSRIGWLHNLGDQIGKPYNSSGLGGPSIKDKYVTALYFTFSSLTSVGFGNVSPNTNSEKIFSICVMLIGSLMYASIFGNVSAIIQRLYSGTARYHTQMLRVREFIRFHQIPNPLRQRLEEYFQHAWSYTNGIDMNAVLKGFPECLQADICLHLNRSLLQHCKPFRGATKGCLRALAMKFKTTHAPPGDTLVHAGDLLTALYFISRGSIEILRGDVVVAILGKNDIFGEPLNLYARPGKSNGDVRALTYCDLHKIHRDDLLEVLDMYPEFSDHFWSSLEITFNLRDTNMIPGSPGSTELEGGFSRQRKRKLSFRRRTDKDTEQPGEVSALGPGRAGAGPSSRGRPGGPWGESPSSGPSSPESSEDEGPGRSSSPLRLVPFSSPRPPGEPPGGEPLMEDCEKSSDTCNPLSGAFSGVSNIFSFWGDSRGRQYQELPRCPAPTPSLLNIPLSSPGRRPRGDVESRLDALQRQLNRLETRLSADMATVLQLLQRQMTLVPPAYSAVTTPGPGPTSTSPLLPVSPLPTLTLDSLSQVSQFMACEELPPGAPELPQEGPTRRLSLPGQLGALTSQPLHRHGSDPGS
Sequence of CAAX prenyl protease 2 (Homo sapiens, UniProt Q9Y256) (Q9Y256 whole entry): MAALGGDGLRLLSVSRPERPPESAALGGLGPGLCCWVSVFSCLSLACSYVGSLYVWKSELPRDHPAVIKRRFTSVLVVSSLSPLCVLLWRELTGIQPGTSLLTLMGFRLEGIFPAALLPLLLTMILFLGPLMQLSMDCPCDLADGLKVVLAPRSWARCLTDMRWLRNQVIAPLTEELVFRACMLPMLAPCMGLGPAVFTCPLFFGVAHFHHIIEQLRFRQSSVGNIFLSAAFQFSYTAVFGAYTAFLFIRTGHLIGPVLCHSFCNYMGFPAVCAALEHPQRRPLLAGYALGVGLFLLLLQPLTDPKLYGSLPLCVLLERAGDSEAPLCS
Sequence of Luciferin 4-monooxygenase (P08659 whole entry): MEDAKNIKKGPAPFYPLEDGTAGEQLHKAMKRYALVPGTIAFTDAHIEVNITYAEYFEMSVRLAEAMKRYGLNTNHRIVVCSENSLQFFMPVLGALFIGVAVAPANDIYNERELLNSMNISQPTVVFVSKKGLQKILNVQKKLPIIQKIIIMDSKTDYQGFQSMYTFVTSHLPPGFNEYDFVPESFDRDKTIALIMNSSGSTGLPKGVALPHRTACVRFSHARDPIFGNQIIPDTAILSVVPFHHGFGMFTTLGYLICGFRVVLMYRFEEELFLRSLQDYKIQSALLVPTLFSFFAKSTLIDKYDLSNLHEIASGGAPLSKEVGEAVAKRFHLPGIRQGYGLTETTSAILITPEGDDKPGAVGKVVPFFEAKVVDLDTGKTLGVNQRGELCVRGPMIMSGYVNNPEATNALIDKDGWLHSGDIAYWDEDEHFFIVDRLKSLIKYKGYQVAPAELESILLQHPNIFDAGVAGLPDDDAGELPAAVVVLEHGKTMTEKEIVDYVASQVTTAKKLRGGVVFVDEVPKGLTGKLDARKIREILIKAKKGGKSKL
Sequence of Cytochrome P450 2D6 (P10635 whole entry): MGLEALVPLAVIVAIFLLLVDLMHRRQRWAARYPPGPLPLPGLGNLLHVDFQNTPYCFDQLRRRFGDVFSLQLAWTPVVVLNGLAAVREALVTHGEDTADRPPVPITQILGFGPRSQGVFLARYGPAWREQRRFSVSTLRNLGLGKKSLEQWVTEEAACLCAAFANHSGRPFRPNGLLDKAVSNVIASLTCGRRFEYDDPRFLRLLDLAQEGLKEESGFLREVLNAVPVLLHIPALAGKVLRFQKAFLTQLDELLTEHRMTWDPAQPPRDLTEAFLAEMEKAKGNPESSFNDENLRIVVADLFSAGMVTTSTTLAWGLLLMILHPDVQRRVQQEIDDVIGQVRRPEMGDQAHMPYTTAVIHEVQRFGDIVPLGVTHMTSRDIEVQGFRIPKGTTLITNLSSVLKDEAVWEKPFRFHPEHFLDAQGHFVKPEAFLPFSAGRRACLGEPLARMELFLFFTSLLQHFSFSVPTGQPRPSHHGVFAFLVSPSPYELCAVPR

## CCCCCCCCCCCCCCC[C@H](O)[C@H](N)CO
[1]
  AC50: 35.5 µM (inconclusive)

## COc1ccc(/C=C/C(=O)NC(=S)NNC(=O)c2cnccn2)cc1
Streptococcus
  EC50: 6.88 µM (active)
[2]
  AC50: 15.4 µM (active)
[3]
  EC50: 4.07 µM (active)
[4]
  EC50: 0.955 µM (active)
Hexokinase HKDC1
  EC50: 2.23 µM (active)
[5]
  AC50: 1.95 µM (active)
[6]
  EC50: 15.2 µM (active)
Hexokinase-1
  EC50: > 80 µM (inactive)
[7]
  AC50: 42.4 µM (active)
[8]
  AC50: 2.05 µM (active)

## Cc1onc(-c2ccccc2)c1C(=O)Nc1cccc2nsnc12
[9]
  IC50: 15.6 µM (active)
[10]
  IC50: > 20 µM (inactive)
Bcl-2-related protein A1
  IC50: > 20 µM (inactive)

## Nc1ccc(Br)cc1-c1nc2ccccc2nc1O
[11]
  IC50: < 0.25 µM (active)
INS1
  AC50: 0.63 µM (active)
[12]
  IC50: < 0.25 µM (active)

## COc1ccc(C(=O)CCNc2ccc(F)cc2)cc1
Cells [13]
  EC50: > 350 µM (not active)
A-375 [14]
  AC50: > 35 µM (active)
A-375 [15]
  AC50: > 35 µM (active)

## O=C(CCc1ccccc1)NC(c1cccs1)c1cc(Cl)c2cccnc2c1O (configuration not stated)
[11]
  IC50: 1.78 µM (active)
[16]
  EC50: 9.65 µM (active)
Cells [13]
  EC50: 9.12 µM (active)
[17]
  AC50: 10.2 µM (active)
[18]
  EC50: 4.12 µM (inconclusive)
[4]
  EC50: 0.536 µM (active)
[19]
  EC50: 0.219 µM (active)
Cells [20]
  EC50: > 350 µM (not active)
[5]
  AC50: 16.9 µM (active)
[6]
  EC50: 1.61 µM (active)
HEK293
  AC50: 9.35 µM (active)
[12]
  IC50: 1.77 µM (active)

## CCNC1=NN=C(c2ccc(C)cc2)CS1
Cytochrome P450 2D6
  AC50: 14.1 µM (inconclusive)
Hexokinase HKDC1
  EC50: 51.6 µM (inactive)
Hexokinase-1
  EC50: 63.1 µM (inactive)
HT-1080
  EC50: > 50 µM (not active)
[21]
  EC50: 1.03 µM (active)

## O=C(COc1ccc2ccc(=O)oc2c1)N1CCC(C(=O)O)(c2ccccc2)CC1
CAAX prenyl protease 2 [22]
  AC50: 98.6 µM (active)

## CC/C=C/C/C=C/C/C=C/CCCCCCCC(=O)OCC
[1]
  AC50: 28.2 µM (inconclusive)

## COc1ccccc1CNC(=O)c1ccccc1N
CAAX prenyl protease 2 [23]
  AC50: 6.36 µM (active)
CAAX prenyl protease 2 [22]
  AC50: 4.31 µM (active)
Trypsin
  AC50: 6.1 µM (active)

## CCOC(=O)c1cc(-c2ccc(OC)cc2)[nH]n1
A-375 [14]
  AC50: > 35 µM (active)
A-375 [15]
  AC50: > 35 µM (active)

## O=C(CCCCCn1c(=O)[nH]c2ccccc2c1=O)NCCc1c[nH]c2ccccc12
[9]
  IC50: 19.3 µM (active)
[10]
  IC50: 18.1 µM (active)
Bcl-2-related protein A1
  IC50: > 20 µM (inactive)
